Test results published in the SangsterLogP compilation.

Row | Compound | logP
1 | CC/C=C\C/C=C\C/C=C\CCCCCCCC(=O)OC | 6.29
2 | CCCCCCCCCCCC(=O)OCC | 5.71
3 | CCCCCCCCCCCC(=O)OCC(CC)CCCC (stereo not given) | 8.03
4 | CCCCCCCCCCCC(=O)OC | 5.41
5 | CCCCCCCCCC(=O)OC | 4.42
6 | CCCCCCCCCCCCCC(=O)OC | 6.41
7 | CCCCCCCCCCCC(=O)OCCCC | 6.51
8 | CCCCCCCCCCCC(=O)OCCC | 6.11
9 | CCCCCCCC/C=C\CCCCCCCC(=O)OC | 7.45
10 | CCCCC/C=C\C/C=C\CCCCCCCC(=O)OC | 6.82

Further lines, results first:

Row | logP | Compound
11 | 7.38 | CCCCCCCCCCCCCCCC(=O)OC
12 | 9.3 | CCCCCCCCCCCCCCCCCCCC(=O)OC
13 | 10.2 | CCCCCCCCCCCCCCCCCCCCCC(=O)OC
14 | 8.35 | CCCCCCCCCCCCCCCCCC(=O)OC
15 | 9.32 | CCCCCCCC/C=C\CCCCCCCCCCCC(=O)OC
